Assay [1] has as its target T1, baculovirus-expressed ALK (Homo sapiens, UniProt Q9UM73).
T1 construct: host or cells: baculovirus expression system
In words: ALK Kinase Assay (ELISA-type, time-resolved fluorescence). The assay is classed as biochemical. The note with it: ALK kinase inhibition, 1 μM ATP; read-out: ALK Activity. The procedure, abridged:
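Plates coated with phospholipase C-γ substrate (10 μg/mL in TBS); reaction started with 30 ng/ml ALK and run 15 min at 37° C. Phosphorylated substrate detected with Eu-N1-labeled PT66 antibody. IC50 from sigmoidal variable-slope fit of percent inhibition vs log concentration.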

Assay [2] has as its target T2, c-Met (cytoplasmic domain) (Homo sapiens, UniProt P08581).
T2 construct: 10 ng/mL c-Met (cytoplasmic domain, Invitrogen Corporation #PV3143); purchased Invitrogen Corporation PV3143
In words: c-Met Kinase Assay (same methods as for ALK, with modifications). To be noted: c-Met kinase inhibition, 1 μM ATP; read-out: cMet Activity. Type of assay: biochemical. The procedure, abridged: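 Plates were coated with phospholipase C-γ substrate (10 μg/mL) in TBS, and the reaction was started with 10 ng/mL c-Met cytoplasmic domain and run 15 min at 37 °C. Phosphoproduct was detected with Eu-N1-labelled PT66 antibody. IC50 came from a variable-slope sigmoidal fit of percent inhibition vs log concentration.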

Structures are written as SMILES.

T1 sequence (Q9UM73 19-1620): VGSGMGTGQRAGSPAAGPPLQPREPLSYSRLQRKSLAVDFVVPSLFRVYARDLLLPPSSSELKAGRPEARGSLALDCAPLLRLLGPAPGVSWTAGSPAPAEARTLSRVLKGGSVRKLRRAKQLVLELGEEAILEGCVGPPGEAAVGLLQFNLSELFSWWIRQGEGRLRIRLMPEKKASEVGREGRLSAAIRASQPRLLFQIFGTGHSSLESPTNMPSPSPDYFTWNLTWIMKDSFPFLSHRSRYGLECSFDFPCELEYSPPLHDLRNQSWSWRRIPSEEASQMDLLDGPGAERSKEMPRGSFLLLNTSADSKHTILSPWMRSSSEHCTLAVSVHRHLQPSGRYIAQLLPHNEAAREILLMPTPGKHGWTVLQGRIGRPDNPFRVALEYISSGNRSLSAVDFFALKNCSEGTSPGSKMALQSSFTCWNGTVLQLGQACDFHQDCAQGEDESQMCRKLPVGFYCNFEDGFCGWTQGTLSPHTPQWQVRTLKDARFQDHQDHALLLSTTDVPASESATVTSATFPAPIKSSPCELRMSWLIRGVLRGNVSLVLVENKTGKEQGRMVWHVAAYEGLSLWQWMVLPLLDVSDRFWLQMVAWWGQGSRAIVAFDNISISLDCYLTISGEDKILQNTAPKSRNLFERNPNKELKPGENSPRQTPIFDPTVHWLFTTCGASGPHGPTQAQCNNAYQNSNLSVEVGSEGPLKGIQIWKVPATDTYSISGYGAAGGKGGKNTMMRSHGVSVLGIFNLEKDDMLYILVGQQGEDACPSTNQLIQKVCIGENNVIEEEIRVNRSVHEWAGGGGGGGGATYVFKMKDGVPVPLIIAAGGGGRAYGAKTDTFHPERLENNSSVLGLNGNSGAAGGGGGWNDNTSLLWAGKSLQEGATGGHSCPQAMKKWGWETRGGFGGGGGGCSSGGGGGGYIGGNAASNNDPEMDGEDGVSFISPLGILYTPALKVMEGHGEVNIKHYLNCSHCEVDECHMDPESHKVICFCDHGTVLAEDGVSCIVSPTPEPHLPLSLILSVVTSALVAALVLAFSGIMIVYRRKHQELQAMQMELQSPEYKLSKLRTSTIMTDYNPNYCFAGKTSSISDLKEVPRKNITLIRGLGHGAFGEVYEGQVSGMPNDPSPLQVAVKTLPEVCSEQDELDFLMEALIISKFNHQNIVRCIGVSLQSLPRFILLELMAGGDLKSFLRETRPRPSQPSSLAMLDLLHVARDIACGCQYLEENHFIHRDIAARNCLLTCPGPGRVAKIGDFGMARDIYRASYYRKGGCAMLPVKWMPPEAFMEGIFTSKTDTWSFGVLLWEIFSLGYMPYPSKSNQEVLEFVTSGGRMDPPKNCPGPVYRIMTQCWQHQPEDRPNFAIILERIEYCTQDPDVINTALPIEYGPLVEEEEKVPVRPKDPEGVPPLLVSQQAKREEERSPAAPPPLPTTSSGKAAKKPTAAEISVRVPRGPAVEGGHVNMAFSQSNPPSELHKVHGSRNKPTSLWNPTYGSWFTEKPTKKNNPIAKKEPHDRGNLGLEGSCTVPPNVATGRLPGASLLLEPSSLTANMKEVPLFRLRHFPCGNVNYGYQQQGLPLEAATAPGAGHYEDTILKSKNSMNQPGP
T2 sequence (P08581 956-1390 limits assumed): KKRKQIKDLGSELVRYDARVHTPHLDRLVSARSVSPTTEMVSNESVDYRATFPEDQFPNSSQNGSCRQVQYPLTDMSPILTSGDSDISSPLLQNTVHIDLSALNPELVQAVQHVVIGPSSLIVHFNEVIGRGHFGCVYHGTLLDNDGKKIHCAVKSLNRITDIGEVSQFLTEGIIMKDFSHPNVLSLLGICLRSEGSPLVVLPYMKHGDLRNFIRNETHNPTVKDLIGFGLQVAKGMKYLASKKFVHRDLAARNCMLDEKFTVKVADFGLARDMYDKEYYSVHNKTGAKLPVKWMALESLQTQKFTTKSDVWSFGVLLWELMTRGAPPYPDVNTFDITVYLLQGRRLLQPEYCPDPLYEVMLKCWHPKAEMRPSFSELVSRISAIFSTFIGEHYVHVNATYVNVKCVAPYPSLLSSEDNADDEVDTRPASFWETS

Turning to `COc1cc(N2CCOCC2)ccc1Nc1nc(Nc2ccc3c(c2)NCCCC3(C)C)ncc1Cl` [Example 1614, 5-Chloro-N*2*-(5,5-dimethyl-2,3,4,5-tetrahydro-1H-benzo[b]azepin-8-yl)-N*4*-(2-methoxy-4-morpholin-4-yl-phenyl)-pyrimidine-2,4-diamine], the IC50 in assay [1] is 100 to 1000 nM; in assay [2], more than 10000 nM.
Take `CCN1C(=O)CCC(C)(C)c2ccc(Nc3ncc(Cl)c(Nc4c(F)cc(F)cc4C(=O)NC)n3)cc21` [Example 1615, 2-[5-Chloro-2-(1-ethyl-5,5-dimethyl-2-oxo-2,3,4,5-tetrahydro-1H-benzo[b]azepin-8-ylamino)-pyrimidin-4-ylamino]-3,5-difluoro-N-methyl-benzamide]: the IC50 in assay [1] and in assay [2] was less than 100 nM in each case.
For the molecule `CNC(=O)c1cccc(F)c1Nc1nc(Nc2ccc3c(c2)N(C(=O)CN2C(=O)c4ccccc4C2=O)CCCC3(C)C)ncc1Cl` [Example 1616, 2-(5-Chloro-2-{1-[2-(1,3-dioxo-1,3-dihydro-isoindol-2-yl)-acetyl]-5,5-dimethyl-2,3,4,5-tetrahydro-1H-benzo[b]azepin-8-ylamino}-pyrimidin-4-ylamino)-3-fluoro-N-methyl-benzamide], the IC50 in assay [1] and in assay [2] was 100 to 1000 nM each time.
On to `CNC(=O)c1cccc(F)c1Nc1nc(Nc2ccc3c(c2)N(C(=O)CN)CCCC3(C)C)ncc1Cl` [Example 1617, 2-{2-[1-(2-Amino-acetyl)-5,5-dimethyl-2,3,4,5-tetrahydro-1H-benzo[b]azepin-8-ylamino]-5-chloro-pyrimidin-4-ylamino}-3-fluoro-N-methyl-benzamide], for which the results for the IC50 in assay [1] and in assay [2] were 100 to 1000 nM and less than 100 nM, respectively.
As to `C#CCNC(=O)c1cccc(F)c1Nc1nc(Nc2ccc3c(c2)N(C(=O)CN2C(=O)c4ccccc4C2=O)CCCC3(C)C)ncc1Cl` [Example 1618, 2-(5-Chloro-2-{1-[2-(1,3-dioxo-1,3-dihydro-isoindol-2-yl)-acetyl]-5,5-dimethyl-2,3,4,5-tetrahydro-1H-benzo[b]azepin-8-ylamino}-pyrimidin-4-ylamino)-3-fluoro-N-prop-2-ynyl-benzamide], the values for the IC50 in assay [1] and in assay [2] were more than 10000 nM and less than 100 nM, respectively.
In the case of `C#CCNC(=O)c1cccc(F)c1Nc1nc(Nc2ccc3c(c2)N(C(=O)CN)CCCC3(C)C)ncc1Cl` [Example 1619, 2-{2-[1-(2-Amino-acetyl)-5,5-dimethyl-2,3,4,5-tetrahydro-1H-benzo[b]azepin-8-ylamino]-5-chloro-pyrimidin-4-ylamino}-3-fluoro-N-prop-2-ynyl-benzamide], the IC50 in assay [1] was 100 to 1000 nM; in assay [2], less than 100 nM.
On to `CNC(=O)c1cccc(F)c1Nc1nc(Nc2ccc3c(c2)N(C(=O)N2CCCC2)CCCC3(C)C)ncc1Cl` [Example 1620, 2-{5-Chloro-2-[5,5-dimethyl-1-(pyrrolidine-1-carbonyl)-2,3,4,5-tetrahydro-1H-benzo[b]azepin-8-ylamino]-pyrimidin-4-ylamino}-3-fluoro-N-methyl-benzamide], for which the IC50 in assay [1] and in assay [2] was 100 to 1000 nM in each case.
On to `CC1(C)CCC(=O)Nc2cc(Nc3ncc(Cl)c(Nc4ccccc4S(=O)(=O)N4CCC(O)C4)n3)ccc21` (stereo not drawn) [Example 1621, 8-{5-Chloro-4-[2-(3-hydroxy-pyrrolidine-1-sulfonyl)-phenylamino]-pyrimidin-2-ylamino}-5,5-dimethyl-1,3,4,5-tetrahydro-benzo[b]azepin-2-one], for which the IC50 in assay [1] and in assay [2] was less than 100 nM each time.
Consider `C#CCNC(=O)c1cc(F)cc(F)c1Nc1nc(Nc2ccc3c(c2)N(C(=O)N2CCCC2)CCCC3(C)C)ncc1Cl` [Example 1622, 2-{5-Chloro-2-[5,5-dimethyl-1-(pyrrolidine-1-carbonyl)-2,3,4,5-tetrahydro-1H-benzo[b]azepin-8-ylamino]-pyrimidin-4-ylamino}-3,5-difluoro-N-prop-2-ynyl-benzamide], for which the IC50 in assay [1] is 1000 to 10000 nM; in assay [2], 100 to 1000 nM.

For the origin of these results see patent US8148391B2 (Cephalon, Inc., priority 2006, dated 2012).
